A short description of this series: cis/trans 2,2,4,4-tetramethylcyclobutane-1,3-diol solubility ratio (cis isomer solubility limit divided by trans isomer solubility limit). The series is classed as physicochemical. The method, then:
The definition of cis/trans 2,2,4,4-tetramethylcyclobutane-1,3-diol solubility ratio is also known to one of ordinary skill in the art; in one embodiment, the cis/trans 2,2,4,4-tetramethylcyclobutane-1,3-diol solubility ratio can be defined as the ratio of the cis isomer solubility limit divided by the trans isomer solubility limit at a given temperature for a given solvent or solvents. For example, the cis/trans solubility ratio in water at 80° C. is about 1.0. For MIBC, the cis/trans solubility ratio at 80° C. is about 0.74.

From patent publication US9238602B1, “Process for the preparation of cis-2,2,4,4-tetramethylcyclobutane-1,3-diol” (Eastman Chemical Company, priority 2014, dated 2016) come the findings set out here.

Molecules are shown by their SMILES.

On to `CC1(C)C(O)C(C)(C)C1O` (centres unmarked) [2,2,4,4-tetramethylcyclobutane-1,3-diol], for which the cis/trans solubility ratio result is given as “about 0.74” (in MIBC (methyl isobutyl carbinol) at 80° C.) and “about 1.0” (in water at 80° C.).
